Assay: xn = mol fraction of the nth substance listed

C1N2CN3CN1CN(C2)C3 + O
101 kPa
Conditions | viscosity [mPa·s]
293.15 K, x1 = 0.003601 | 1.028
293.15 K, x1 = 0.007176 | 1.072
293.15 K, x1 = 0.01043 | 1.127
293.15 K, x1 = 0.01396 | 1.205
293.15 K, x1 = 0.01775 | 1.308
297.35 K, x1 = 0.022 | 1.515
297.35 K, x1 = 0.031 | 1.736
297.35 K, x1 = 0.041 | 2.087
297.55 K, x1 = 0.052 | 2.537
298.15 K, x1 = 0.003601 | 0.928
298.15 K, x1 = 0.007176 | 0.979
298.15 K, x1 = 0.01043 | 1.033
298.15 K, x1 = 0.01396 | 1.101
298.15 K, x1 = 0.01775 | 1.185
300.15 K, x1 = 0.003601 | 0.83
300.15 K, x1 = 0.007176 | 0.874
300.15 K, x1 = 0.01043 | 0.922
300.15 K, x1 = 0.01396 | 0.982
300.15 K, x1 = 0.01775 | 1.058
302.15 K, x1 = 0.022 | 1.389
302.35 K, x1 = 0.031 | 1.627
302.35 K, x1 = 0.052 | 2.222
302.75 K, x1 = 0.041 | 1.832
305.15 K, x1 = 0.003601 | 0.74
305.15 K, x1 = 0.007176 | 0.777
305.15 K, x1 = 0.01043 | 0.822
305.15 K, x1 = 0.01396 | 0.884
305.15 K, x1 = 0.01775 | 0.967
306.95 K, x1 = 0.031 | 1.483
307.35 K, x1 = 0.022 | 1.321
307.35 K, x1 = 0.041 | 1.689
307.35 K, x1 = 0.052 | 2.056
311.95 K, x1 = 0.022 | 1.251
312.15 K, x1 = 0.031 | 1.375
312.15 K, x1 = 0.041 | 1.595
312.15 K, x1 = 0.052 | 1.864

CO/N=C(\C(=O)N[C@@H]1C(=O)N2C(C(=O)[O-])=C(CSc3nc(=O)c(=O)[n-]n3C)CS[C@H]12)c1csc(N)n1.[Na+].[Na+] + O
viscosity [mPa·s], 100 kPa
Conditions | 293.15 K | 298.15 K | 303.15 K | 308.15 K | 313.15 K
x1 = 9e-05 | 1.012 | 0.8968 | 0.8033 | 0.7267 | 0.6584
x1 = 0.00018 | 1.016 | 0.9026 | 0.807 | 0.7308 | 0.6615
x1 = 0.000349 | 1.053 | 0.935 | 0.829 | 0.744 | –
x1 = 0.000873 | 1.12 | 0.994 | 0.885 | 0.794 | –
x1 = 0.0009 | 1.03 | 0.9163 | 0.8185 | 0.7413 | 0.6726
x1 = 0.00139 | 1.2 | 1.062 | 0.945 | 0.849 | –
x1 = 0.002501 | 1.399 | 1.231 | 1.1 | 0.982 | –
x1 = 0.003119 | 1.527 | 1.348 | 1.195 | 1.07 | –
x1 = 0.003887 | 1.701 | 1.495 | 1.323 | 1.184 | –
x1 = 0.004766 | 1.918 | 1.674 | 1.48 | 1.322 | –
x1 = 0.005482 | 2.122 | 1.858 | 1.638 | 1.455 | –

CO/N=C(\C(=O)N[C@@H]1C(=O)N2C(C(=O)[O-])=C(CSc3nc(C)c(CC(=O)[O-])s3)CS[C@H]12)c1csc(N)n1.[Na+].[Na+] + O
Conditions | viscosity [mPa·s]
293.15 K, 101 kPa, x1 = 0.002695 | 1.285

NCCC(=O)N[C@@H](Cc1c[nH]cn1)C(=O)O + O
viscosity [mPa·s], 100 kPa
Conditions | x1 = 0.000358 | x1 = 0.00054 | x1 = 0.000713 | x1 = 0.00108 | x1 = 0.00126 | x1 = 0.00143 | x1 = 0.00162
293.15 K | 1.024 | 1.028 | 1.03 | 1.046 | 1.053 | 1.058 | 1.06
298.15 K | 0.908 | 0.909 | 0.915 | 0.928 | 0.933 | 0.938 | 0.938
303.15 K | 0.813 | 0.814 | 0.818 | 0.831 | 0.835 | 0.839 | 0.84
308.15 K | 0.732 | 0.733 | 0.738 | 0.747 | 0.752 | 0.756 | 0.756
313.15 K | 0.663 | 0.664 | 0.669 | 0.676 | 0.681 | 0.683 | 0.685

O=S(=O)([O-])[O-].[NH3+]O.[NH3+]O + O
viscosity [mPa·s], 101 kPa
Conditions | x1 = 0.001 | x1 = 0.002 | x1 = 0.006 | x1 = 0.012 | x1 = 0.019 | x1 = 0.027 | x1 = 0.035 | x1 = 0.045
293.15 K | 1.022 | 1.046 | 1.134 | 1.264 | 1.435 | 1.678 | 1.925 | 2.198
298.15 K | 0.905 | 0.931 | 0.995 | 1.121 | 1.277 | 1.481 | 1.706 | 1.983
303.15 K | 0.811 | 0.831 | 0.89 | 1.006 | 1.148 | 1.317 | 1.523 | 1.849
313.15 K | 0.666 | 0.683 | 0.734 | 0.825 | 0.937 | 1.075 | 1.244 | 1.508
323.15 K | 0.559 | 0.573 | 0.616 | 0.693 | 0.791 | 0.901 | 1.04 | 1.247

Oc1ccccc1 + O
viscosity [mPa·s], 101 kPa
Conditions | 293.15 K | 303.15 K | 313.15 K | 323.15 K
x1 = 0.004 | 1.056 | 0.8342 | 0.6816 | 0.5696
x1 = 0.008 | 1.107 | 0.8703 | 0.7185 | 0.5898
x1 = 0.01 | 1.16 | 0.9071 | 0.737 | 0.611
x1 = 0.02 | 1.215 | 0.9485 | 0.7664 | 0.634
x1 = 0.021 | – | – | – | 0.66
x1 = 0.31 | – | 2.972 | 2.253 | 1.775
x1 = 0.36 | 4.372 | 3.153 | 2.383 | 1.858
x1 = 0.43 | 4.731 | 3.393 | 2.553 | 1.981
x1 = 0.52 | 5.273 | 3.742 | 2.792 | 2.164
x1 = 0.63 | 6.146 | 4.288 | 3.161 | 2.42
x1 = 0.78 | – | – | 3.77 | –

From the CheMixHub viscosity set
